≈ marks a conversion by molar mass, not a printed value. Where “and” joins values, the source holds several entries; their conditions need not be identical. Equal entries are not always repeated. Where two headings read alike, the source gives them in different places.
Tests used:
[1] = tested on: H. pylori strain M92 (CLR resistant); experiment: Growth curve method / MIC, resistant strain M92; assay type: cell-based, Helicobacter pylori; conditions: Helicobacter pylori, strain M92, CLR resistant
Method: (§1) The representative PNP inhibitor from H. pylori included in this study was immucillin A. The experiment was conducted using the growth curve method (two-fold serial dilutions in liquid medium). The tested H. pylori strains were cultured in Petri dishes with BHI solid medium supplemented with 10% FBS and 1% H. pylori Selective Supplement antibiotic kit, in anaerostats under microaerophilic conditions (5% 02, 10% CO2, 85% N2) at 37° C. for 3 days. Liquid culture of H. pylori was conducted overnight with shaking at 37° C. under microaerophilic conditions in BHI medium supplemented with 10% FBS and 1% H. pylori Selective Supplement antibiotic kit. Subsequently, for the essential experiment of determining the minimum inhibitory concentration (MIC), double strengthened liquid BHI medium was prepared, that is, supplemented with 20% FBS and a 2% set of H. pylori Selective Supplement antibiotics.
(§2) Bacterial proliferation inhibition experiments were carried out in 24-deep-well 2 ml flat-bottomed plates at a solution volume per well of 0.5 ml. In a single well, double strengthened (relative to the concentration planned for testing) solutions of the test inhibitor and double strengthened liquid BHI medium inoculated with H. pylori (10^4-10^5 CFU/ml in the final volume in the well, corresponding to the optical density of the culture OD600=0.05) were mixed together in a 1:1 ratio.
(§3) Kanamycin at a concentration of 25 μg/ml (Irie et al., 1997) was used as a positive control, while Mili-Q deionized water and BHI medium not inoculated with bacteria were used as negative controls. Plates were shaken at 37° C., under microaerophilic conditions. […] After 24 hours, the OD600 of samples containing the negative control, i.e. with Mili-Q deionized water, was about 1.2-1.4, corresponding to a bacterial concentration of about […].
(§4) In addition, the method proposed by Knezevic et al. (2018) was used to check whether the observed OD600 was from live bacterial cells. For this purpose, an equal volume of Christensen's double strength urea broth (that is, containing twice the concentration of all components) was added to the wells after incubation, and the plates were additionally incubated for 4 hours in an oxygen atmosphere at 37° C. During incubation, in wells with urease produced by live bacteria, urea is converted to ammonia and carbon dioxide, changing the pH of the solution and thus the colour of the phenol red indicator contained in the medium (from orange to purple).
(§5) All experiments were performed in triplicate.
The antibacterial activity of two compounds, mefloquine (in the form of hydrochloride) and quinine, described in the literature as potent in vitro inhibitors of the PNP enzyme from Plasmodium falciparum (Dziekan et al., 2019), was tested. Using a two-fold serial dilution method in liquid medium (as described in Example 3), the MIC values for mefloquine and quinine were determined against clinical H. pylori strains resistant to MTZ, CLR and MTZ+CLR (M26, M91, M92 and M93), as well as the reference H. pylori strain 26695. Four clinical H. pylori strains isolated from adults, from primary infections (the subjects had never previously been treated against H. pylori infection) were tested. These strains come from the collection of the Department of Microbiology of the Medical University of Wroclaw and were obtained due to collaboration with Prof. Grażyna Gościniak, MD, PhD. The tested compounds belong to organic substances and are soluble in DMSO. The maximum tested concentration of quinine in H. pylori culture was 0.56 mM, and that of mefloquine was 2.25 mM. […] On each occasion, the effect of DMSO alone on the growth of the H. pylori strains tested was also checked. […] Kanamycin was used as a positive control and Mili-Q deionised water as a negative control. All experiments were carried out in triplicate. […]

H. pylori strain P12 = experiment: Growth curve method / MIC, strain P12; assay type: cell-based, Helicobacter pylori; conditions: Helicobacter pylori
Method: as §1, §2, §3, §4, §5
Inhibition by PLP and its metabolic precursors of the growth of H. pylori strains: 26695, N6 and P12 in culture was investigated using the growth curve method as described in Example 3. From these experiments, the minimum inhibitory concentration was determined as the lowest concentration of a compound that inhibits the visible growth of the bacteria, compared to growth in control samples without the tested compounds. All experiments were carried out in triplicate.

`Cc1ncc(COP(=O)(O)O)c(C=O)c1O` [PLP, pyridoxal 5′-phosphate] gave an MIC ([1]; read-out: MIC) of 309 to 618 µg/mL, an MIC ([1]; read-out: MIC (Table 7)) of 1.25 to 2.5 µM and an MIC (H. pylori strain P12; P12, read-out: MIC (Table 7)) of 2.5 µM (≈ 0.618 µg/mL). The MIC (H. pylori strain P12; strain P12, read-out: MIC) was 618 µg/mL and 2500 µM.

For `Cc1ncc(CO)c(C=O)c1O.Cl` [PI-h, pyridoxal hydrochloride], the MIC ([1]; read-out: MIC) was 509 µg/mL and 2500 µM, the MIC ([1]; read-out: MIC (Table 7)) was 2.5 µM and the MIC (H. pylori strain P12; P12, read-out: MIC (Table 7)) was 2.5 µM. For the same compound, the MIC (H. pylori strain P12; strain P12, read-out: MIC) was 509 µg/mL and 2500 µM.
